According to the NIST ThermoML archive (doi:10.1016/j.jct.2005.06.003):
Numbers after ± are expanded uncertainties.

Conditions: Liquid, Closed cell (Static) method

Row | SMILES | vapor or sublimation pressure (283.15 K) [kPa] | vapor or sublimation pressure (288.15 K) [kPa] | vapor or sublimation pressure (293.15 K) [kPa] | vapor or sublimation pressure (298.15 K) [kPa] | vapor or sublimation pressure (303.15 K) [kPa] | vapor or sublimation pressure (308.15 K) [kPa] | vapor or sublimation pressure (313.15 K) [kPa] | vapor or sublimation pressure (318.15 K) [kPa] | vapor or sublimation pressure (323.15 K) [kPa]
1 | C1CCOC1 [tetrahydrofuran] | 10.73 ± 0.032 | 13.67 ± 0.036 | 17.25 ± 0.041 | 21.6 ± 0.047 | 26.81 ± 0.054 | 32.94 ± 0.065 | 40.21 ± 0.077 | 48.68 ± 0.091 | 58.54 ± 0.11
2 | ClC(Cl)=C(Cl)Cl [tetrachloroethene] | 1.023 ± 0.022 | 1.4 ± 0.022 | 1.861 ± 0.022 | 2.462 ± 0.023 | 3.205 ± 0.023 | 4.117 ± 0.024 | 5.253 ± 0.025 | 6.621 ± 0.027 | 8.286 ± 0.028
3 | ClC(Cl)C(Cl)Cl [1,1,2,2-tetrachloroethane] | 0.263 ± 0.02 | 0.373 ± 0.02 | 0.521 ± 0.021 | 0.711 ± 0.021 | 0.98 ± 0.022 | 1.289 ± 0.022 | 1.701 ± 0.022 | 2.236 ± 0.023 | 2.86 ± 0.023
